US20190167619A1, “PHARMACEUTICAL FORMULATIONS AND THEIR USE” (SIGNUM BIOSCIENCES, INC., priority 2016, published 2019)

Tests used:
[1] = Stability of a formulation comprising the disodium salt after storage at 25° C., HPLC (Example 2); type: physicochemical
Method: The stability of a formulation comprising the disodium salt of 4-(((R)-1-carboxy-2-(((2E,6E)-3,7,11-trimethyldodeca-2,6,10-trien-1-yl)thio)ethyl)amino)-4-oxobutanoic acid was determined after storage at 25° C. for a period of 4 months, 6 months, 9 months and 12 months. […]

[2] = Stability of a formulation comprising the disodium salt after storage at 5° C., HPLC (Example 3); type: physicochemical
Method: The stability of a formulation comprising the disodium salt of 4-(((R)-1-carboxy-2-(((2E,6E)-3,7,11-trimethyldodeca-2,6,10-trien-1-yl)thio)ethyl)amino)-4-oxobutanoic acid was determined after storage at 5° C. for a period of 1 month, 2 months, 3 months, 6 months, 9 months, 12 months, 18 months, and 24 months. In each case, the percentage of 4-(((R)-1-carboxy-2-(((2E,6E)-3,7,11-trimethyldodeca-2,6,10-trien-1-yl)thio)ethyl)amino)-4-oxobutanoic acid remaining at each time point was determined by use of HPLC. Each of the percentages in the table below are expressed at the weight percentage of the component as compared to the total weight of the composition.

Row | % age of sulfoxide of 4-(((R)-1-carboxy-2-(((2E,6E)-3,7,11-trimethyldodeca-2,6,10-trien-1-yl)thio)ethyl)amino)-4-oxobutanoic acid ([1]; Initial) [%] | % age of sulfoxide of 4-(((R)-1-carboxy-2-(((2E,6E)-3,7,11-trimethyldodeca-2,6,10-trien-1-yl)thio)ethyl)amino)-4-oxobutanoic acid ([1]; after 1 month, storage at 25° C.) [%] | % age of sulfoxide of 4-(((R)-1-carboxy-2-(((2E,6E)-3,7,11-trimethyldodeca-2,6,10-trien-1-yl)thio)ethyl)amino)-4-oxobutanoic acid ([1]; after 3 months, storage at 25° C.) [%] | % age of sulfoxide of 4-(((R)-1-carboxy-2-(((2E,6E)-3,7,11-trimethyldodeca-2,6,10-trien-1-yl)thio)ethyl)amino)-4-oxobutanoic acid ([1]; after 6 months, storage at 25° C.) [%] | % age of sulfoxide of 4-(((R)-1-carboxy-2-(((2E,6E)-3,7,11-trimethyldodeca-2,6,10-trien-1-yl)thio)ethyl)amino)-4-oxobutanoic acid ([1]; after 9 months, storage at 25° C.) [%] | weight percentage of the component as compared to the total weight of the composition ([2]; 1 month, storage at 5° C.) [weight percentage] | weight percentage of the component as compared to the total weight of the composition ([2]; 2 months, storage at 5° C.) [weight percentage] | weight percentage of the component as compared to the total weight of the composition ([2]; 3 months, storage at 5° C.) [weight percentage] | weight percentage of the component as compared to the total weight of the composition ([2]; 6 months, storage at 5° C.) [weight percentage] | weight percentage of the component as compared to the total weight of the composition ([2]; 9 months, storage at 5° C.) [weight percentage] | weight percentage of the component as compared to the total weight of the composition ([2]; 12 months, storage at 5° C.) [weight percentage] | weight percentage of the component as compared to the total weight of the composition ([2]; 18 months, storage at 5° C.) [weight percentage] | weight percentage of the component as compared to the total weight of the composition ([2]; 24 months, storage at 5° C.) [weight percentage] | weight percentage of the component as compared to the total weight of the composition ([2]; Initial) [weight percentage] | SMILES
1 | 0.037 | 0.031 | 0.113 | 0.053 | 0.134 |  |  |  |  |  |  |  |  |  | CC(C)=CCC/C(C)=C/CC/C(C)=C/CSC[C@H](NC(=O)CCC(=O)O)C(=O)O [4-(((R)-1-carboxy-2-(((2E,6E)-3,7,11-trimethyldodeca-2,6,10-trien-1-yl)thio)ethyl)amino)-4-oxobutanoic acid]
2 |  |  |  |  |  | 0.17 | 0.17 | 0.17 | 0.18 | 0.17 | 0.17 | 0.17 | 0.15 | 0.17 | COC(=O)c1ccc(O)cc1 [Methylparaben]
3 |  |  |  |  |  | 0.032 | 0.032 | 0.033 | 0.032 | 0.033 | 0.032 | 0.033 | 0.030 | 0.034 | CCCOC(=O)c1ccc(O)cc1 [Propylparaben]
